From ChEMBL document CHEMBL1149499, “Synthesis and agonist activity of cyclic ADP-ribose analogues with substitution of the northern ribose by ether or alkane chains” (J Med Chem, 2006) come the findings set out here.

Common to all, as to type: functional, cell-based
Details in all cases: Homo sapiens

Experiment [1] deals with Jurkat. Description: Agonist activity against cADPR/RyR assessed as induction of calcium influx in intact jurkat T cells at 500 uM.
In experiment [2] the test system is Jurkat. Description: Induction of calcium flux in single jurkat T cell by confocal calcium imaging experiment at 500 uM. In general terms: A change in cytosolic calcium serves as a functional read-out for many receptors and channels.
Experiment [3] relates to Jurkat. Briefly: Antagonist activity against cADPR/RyR assessed as inhibition of anti CD3-stimulated calcium influx in intact jurkat T cells at 500 uM.

Active and inactive are the calls of the source. The calls are words filed in the database; no cut-off is given here.

On to `N=c1c2ncn3c2ncn1CCOCCOP(=O)(O)OP(=O)(O)OC[C@H]1O[C@@H]3[C@H](O)[C@@H]1O`, for which the outcome in the experiment on Jurkat [1] and with Jurkat [2] was Active. Further, in the experiment on Jurkat [3], the result was inactive.
Regarding `N=c1c2ncn3c2ncn1CCCCCOP(=O)(O)OP(=O)(O)OC[C@H]1O[C@@H]3[C@H](O)[C@@H]1O`, the outcome in the experiment on Jurkat [1] was Active. In the experiment with Jurkat [3], the result was inactive.
As for `N=c1c2ncn3c2ncn1CCCCOP(=O)(O)OP(=O)(O)OC[C@H]1O[C@@H]3[C@H](O)[C@@H]1O`, in the experiment on Jurkat [1], the outcome was Active. In addition, the result in the experiment with Jurkat [3] was inactive.
